# Reference: ChEMBL document CHEMBL1152069, “Synthesis and biological properties of carboranylaziridines bearing cascade polyols” (Bioorg Med Chem Lett, 1996)
# Assays:
# [1] = Water solubility at 37 degree C.; format: ADME; settings: buffer
# B16 [2] = assay: Compound was tested for cytotoxic activity against […] melanoma cells; format: functional, cell-based, Mus musculus
# [3] = Compound was tested for growth Inhibition against human TIG-1-20 fibroblast cells; format: functional, cell-based
# B16 [4] = assay: Compound was tested for growth Inhibition against B16 melanoma cells; format: functional, cell-based, Mus musculus
SMILES,S [1],IC50 (B16 [2]),IC50 [3],IC50 (B16 [4])
CC1CN1CC(O)CC1CC1COC(COC(CO)CO)COC(CO)CO (centres undefined),"> 0.01 M,mol dme-3","0.00005 M,mol dme-3","0.000068 M,mol dme-3",–
CC1CN1CC(O)CC1CC1COC(CO)CO (centres undefined),"0.0081 M,mol dme-3","0.000029 M,mol dme-3","0.000041 M,mol dme-3",–
CC1CN1CC(O)CC1CC1 (centres undefined),"< 0.001 M,mol dme-3",–,"0.000018 M,mol dme-3","5.4e-6 M,mol dme-3"
